# Article PMC8654847, “Design of a methotrexate-controlled chemical dimerization system and its use in bio-electronic devices” (Nature Communications, 2021)
# Target: T1, anti-MTX VHH
# T1 construct: nanoCLAMP8-VHH fusion for the crystal structure 7RG7
# Test: microscale thermophoresis (EGFP-VHH titrated with MTX); […] Å crystal structure of the ternary complex with nanoCLAMP8
# Type: binding
compound,measurement,value
"CN(Cc1cnc2nc(N)nc(N)c2n1)c1ccc(C(=O)N[C@@H](CCC(=O)O)C(=O)O)cc1 [MTX, methotrexate]",Kd,4.3 ± 0.25 nM
